Test results reported in PubChem BioAssay AID1963851 (Molecular Pharmacology Branch, DTP, NCI, 2024).

Tested on: 188146-221-R-J1-PDC complex spheroid viability
Assay: Anticancer human tumor 188146-221-R-J1-PDC patient-derived colon adenocarcinoma cell line growth inhibition [POLQ]
Conditions: for IC50: curve of first compound; for viability, T/C: stronger effect = lower value; active = viability on the fitted dose curve at most 10% of control; inactive = the rest
Procedure, shortened: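 Growth inhibition in 3D: complex spheroids (tumor PDC, HUVEC, MSC) treated with POLQ inhibitor combinations; where Cmax unknown, highest tested concentration 10 microM, except SN-38 at 1 microM.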

[1] = second compound 0.0316 µM, first compound 0.0316 µM
[2] = second compound 0.0316 µM, first compound 0.1 µM
[3] = second compound 0.0316 µM, first compound 0.316 µM
[4] = second compound 0.0316 µM, first compound 1 µM
[5] = second compound 0.0316 µM, first compound 3.16 µM
[6] = second compound 0.0316 µM, first compound 10 µM
[7] = second compound 0.1 µM, first compound 0.0316 µM
[8] = second compound 0.1 µM, first compound 0.1 µM
[9] = second compound 0.1 µM, first compound 0.316 µM
[10] = second compound 0.1 µM, first compound 1 µM
[11] = second compound 0.1 µM, first compound 3.16 µM
[12] = second compound 0.1 µM, first compound 10 µM
[13] = second compound 0.316 µM, first compound 0.0316 µM
[14] = second compound 0.316 µM, first compound 0.1 µM
[15] = second compound 0.316 µM, first compound 0.316 µM
[16] = second compound 0.316 µM, first compound 1 µM
[17] = second compound 0.316 µM, first compound 3.16 µM
[18] = second compound 0.316 µM, first compound 10 µM
[19] = second compound 1 µM, first compound 0.0316 µM
[20] = second compound 1 µM, first compound 0.1 µM
[21] = second compound 1 µM, first compound 0.316 µM
[22] = second compound 1 µM, first compound 1 µM
[23] = second compound 1 µM, first compound 3.16 µM
[24] = second compound 1 µM, first compound 10 µM
[25] = second compound 3.16 µM, first compound 0.0316 µM
[26] = second compound 3.16 µM, first compound 0.1 µM
[27] = second compound 3.16 µM, first compound 0.316 µM
[28] = second compound 3.16 µM, first compound 1 µM
[29] = second compound 3.16 µM, first compound 3.16 µM
[30] = second compound 3.16 µM, first compound 10 µM
[31] = second compound 10 µM, first compound 0.0316 µM
[32] = second compound 10 µM, first compound 0.1 µM
[33] = second compound 10 µM, first compound 0.316 µM
[34] = second compound 10 µM, first compound 1 µM
[35] = second compound 10 µM, first compound 3.16 µM
[36] = second compound 10 µM, first compound 10 µM
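Note: spheroids exposed to compounds for seven days.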
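Throughout, for viability, T/C: 100% = DMSO vehicle control viability.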

O=C(Nc1ccc(O)c(NS(=O)(=O)c2ccc(F)cc2)c1)c1ccc(-c2ccccc2)cc1 + COC1C(OC(N)=O)C(O)C(Oc2ccc3c(O)c(NC(=O)c4ccc(O)c(CC=C(C)C)c4)c(=O)oc3c2C)OC1(C)C
> 10000 nM: IC50 (second compound 0.0316 µM) | IC50 (second compound 0.1 µM) | IC50 (second compound 0.316 µM) | IC50 (second compound 1 µM) | IC50 (second compound 3.16 µM) | IC50 (second compound 10 µM)
inactive: viability, T/C [1] 104% | viability, T/C [2] 95% | viability, T/C [3] 99.7% | viability, T/C [4] 97.6% | viability, T/C [5] 86.5% | viability, T/C [6] 89% | viability, T/C [7] 106% | viability, T/C [8] 104% | viability, T/C [9] 96.5% | viability, T/C [10] 99.4% | viability, T/C [11] 98.8% | viability, T/C [12] 75.2% | viability, T/C [13] 95% | viability, T/C [14] 108% | viability, T/C [15] 101% | viability, T/C [16] 100% | viability, T/C [17] 88.2% | viability, T/C [18] 69.4% | viability, T/C [19] 102% | viability, T/C [20] 96.2% | viability, T/C [21] 105% | viability, T/C [22] 101% | viability, T/C [23] 94.4% | viability, T/C [24] 79.5% | viability, T/C [25] 105% | viability, T/C [26] 106% | viability, T/C [27] 108% | viability, T/C [28] 88.7% | viability, T/C [29] 97.4% | viability, T/C [30] 73.1% | viability, T/C [31] 96.9% | viability, T/C [32] 95.8% | viability, T/C [33] 113% | viability, T/C [34] 102% | viability, T/C [35] 103% | viability, T/C [36] 83.3%

Nc1ccn(C2OC(CO)C(O)C2(F)F)c(=O)n1 (stereo unspecified) + COC1C(OC(N)=O)C(O)C(Oc2ccc3c(O)c(NC(=O)c4ccc(O)c(CC=C(C)C)c4)c(=O)oc3c2C)OC1(C)C
32.1 nM: IC50 (second compound 0.1 µM)
inactive: viability, T/C [1] 46.8% | viability, T/C [2] 29.5% | viability, T/C [3] 17.4% | viability, T/C [4] 14.4% | viability, T/C [5] 15.2% | viability, T/C [6] 13.2% | viability, T/C [7] 50.4% | viability, T/C [8] 29.4% | viability, T/C [9] 13.8% | viability, T/C [10] 12.5% | viability, T/C [11] 14.8% | viability, T/C [12] 14.3% | viability, T/C [13] 41.1% | viability, T/C [14] 28.7% | viability, T/C [15] 21.8% | viability, T/C [16] 12.2% | viability, T/C [17] 12% | viability, T/C [18] 11% | viability, T/C [19] 41.5% | viability, T/C [20] 24.8% | viability, T/C [21] 19.2% | viability, T/C [22] 13.4% | viability, T/C [23] 13.5% | viability, T/C [24] 12.6% | viability, T/C [25] 46.3% | viability, T/C [26] 26.1% | viability, T/C [27] 16.2% | viability, T/C [28] 13.5% | viability, T/C [29] 14% | viability, T/C [30] 13.9% | viability, T/C [31] 45.6% | viability, T/C [32] 20.5% | viability, T/C [33] 16.1% | viability, T/C [34] 12.4% | viability, T/C [35] 16.4% | viability, T/C [36] 13.3%
< 31.6 nM: IC50 (second compound 0.0316 µM) | IC50 (second compound 0.316 µM) | IC50 (second compound 1 µM) | IC50 (second compound 3.16 µM) | IC50 (second compound 10 µM)

CC[C@@]1(O)C(=O)OCc2c1cc1n(c2=O)Cc2cc3c(CN(C)C)c(O)ccc3nc2-1 + COC1C(OC(N)=O)C(O)C(Oc2ccc3c(O)c(NC(=O)c4ccc(O)c(CC=C(C)C)c4)c(=O)oc3c2C)OC1(C)C
inactive: viability, T/C (second compound 0.0316 µM, first compound 0.000316 µM) 109% | viability, T/C (second compound 0.0316 µM, first compound 0.001 µM) 98.7% | viability, T/C (second compound 0.0316 µM, first compound 0.00316 µM) 102% | viability, T/C (second compound 0.0316 µM, first compound 0.01 µM) 101% | viability, T/C [1] 98.8% | viability, T/C [2] 68.2% | viability, T/C (second compound 0.1 µM, first compound 0.000316 µM) 97.7% | viability, T/C (second compound 0.1 µM, first compound 0.001 µM) 100% | viability, T/C (second compound 0.1 µM, first compound 0.00316 µM) 89.8% | viability, T/C (second compound 0.1 µM, first compound 0.01 µM) 101% | viability, T/C [7] 87.9% | viability, T/C [8] 66.5% | viability, T/C (second compound 0.316 µM, first compound 0.000316 µM) 106% | viability, T/C (second compound 0.316 µM, first compound 0.001 µM) 95.9% | viability, T/C (second compound 0.316 µM, first compound 0.00316 µM) 107% | viability, T/C (second compound 0.316 µM, first compound 0.01 µM) 98.1% | viability, T/C [13] 89.2% | viability, T/C [14] 73.9% | viability, T/C (second compound 1 µM, first compound 0.000316 µM) 111% | viability, T/C (second compound 1 µM, first compound 0.001 µM) 104% | viability, T/C (second compound 1 µM, first compound 0.00316 µM) 109% | viability, T/C (second compound 1 µM, first compound 0.01 µM) 104% | viability, T/C [19] 90.1% | viability, T/C [20] 79.3% | viability, T/C (second compound 3.16 µM, first compound 0.000316 µM) 104% | viability, T/C (second compound 3.16 µM, first compound 0.001 µM) 102% | viability, T/C (second compound 3.16 µM, first compound 0.00316 µM) 94.5% | viability, T/C (second compound 3.16 µM, first compound 0.01 µM) 91.6% | viability, T/C [25] 102% | viability, T/C [26] 67.3% | viability, T/C (second compound 10 µM, first compound 0.000316 µM) 96.2% | viability, T/C (second compound 10 µM, first compound 0.001 µM) 90.7% | viability, T/C (second compound 10 µM, first compound 0.00316 µM) 99.5% | viability, T/C (second compound 10 µM, first compound 0.01 µM) 94.6% | viability, T/C [31] 92.1% | viability, T/C [32] 62.9%
> 100 nM: IC50 (second compound 0.0316 µM) | IC50 (second compound 0.1 µM) | IC50 (second compound 0.316 µM) | IC50 (second compound 1 µM) | IC50 (second compound 3.16 µM) | IC50 (second compound 10 µM)
